The values below come from patent US20170095440A1, “METHOD OF TREATING CANINE PANCREATITIS” (CK9, LLC, priority 2014, published 2017).

Where “and” joins values, the source holds several entries; their conditions need not be identical. Equal entries are not always repeated. Entries after “also recorded” stand apart in the source; their conditions may differ.

One series concerns rat models. The settings on record: cited from earlier work.
Series [1] has as its system dogs with suspected chronic pancreatitis. Nature of the series: Serum S100A12 before and after treatment, clinical trial. The conditions noted are these: for Change in serum S100A12, pre- vs post-treatment: methanesulfonate. Type of series: in vivo, dog. As to the method: Treatment effects on overall health status, quality of life, and clinical signs were also evaluated with serum biochemistry profiles, complete blood counts, and owner questionnaires.
Dogs were identified by screening current submissions to the Gastrointestinal Laboratory at Texas A&M indicative of pancreatitis (canine pancreas-specific lipase≧400 μg/L) using an immunoassay for measurement of canine pancreas-specific lipase in canine serum known as the spec CPL® Test (IDEXX, Laboratories). A number of potential study participants were directly referred to the investigator by veterinarians, based on positive pet-side SNAP cPL® Test (IDEXX Laboratories, Westbrook, Me., USA) results and concomitant clinical signs. After ascertaining individual suitability of a patient with the referring veterinarian, serum canine pancreas-specific lipase concentration, serum biochemistry profile, and complete blood count were evaluated or re-evaluated 12±4 days after collection of the initial sample submission to the Gastrointestinal Laboratory. Based on the assumption that consecutive canine pancreas-specific lipase elevations indicate chronic pancreatitis, enrollment was offered for patients with canine pancreas-specific lipase concentrations≧400 μg/L, serum triglyceride concentrations below 500 mg/dL, and no indication of hepatic, renal, or other organ disease. […] Owner consent was required prior to phlebotomy and for enrollment into the trial.
Twelve enrolled dogs received camostat capsules at a dosage of 4 mg/kg q 8 hrs, for a total dose of 12 mg/kg q 24 hrs. […] Individual patients were medicated for between 21 to 31 days.
Blood samples were collected before beginning the treatment and after completion of the treatment period. Complete blood count (red blood cell count, hematocrit, mean corpuscular volume, mean corpuscular hemoglobin, mean corpuscular hemoglobin concentration, differential and absolute white blood cell count, red blood cell count, hemoglobin, platelet estimate, red blood cell morphology, white blood cell morphology, and hemoparasites) was evaluated at the Texas Veterinary Medical Diagnostic Laboratory (TVMDL). A serum chemistry profile with electrolytes (glucose, blood urea nitrogen, creatinine, calcium, phosphorus, albumin, total protein, total bilirubin, alkaline phosphatase, alanine amino transferase, aspartate amino transferase, γ-glutamyl transferase, cholesterol, triglycerides, globuline, sodium, potassium, and chloride) was performed on a SIRRUS analyzer (Stanbio, Boerne, Tex., USA). […]
Pre-treatment and post-treatment results for all diagnostic tests were statistically analyzed using Prism 6 (GraphPad Software, La Jolla, Calif., USA). […]

A further series deals with Han Wistar rats. Description: Multiple-dose tolerance study, oral gavage 3 times a day for 7 days. Type of series: in vivo, rat. As to the method: The following parameters and end points were evaluated in the multiple-dose phase of this study: clinical signs, body weights, body weight changes, food consumption, and gross necropsy findings.
A total of 18 male and 24 female Han Wistar rats were received from Charles River Laboratories, Raleigh, N.C. The animals were examined and weighed on the day following receipt. The rising-dose phase animals were 8 weeks old and weighed between 176 g and 255 g at initiation of dosing and the multiple-dose phase animals were 8 weeks old and weighed between 172 g and 259 g at initiation of dosing.
For the multiple-dose study, the test and control articles were administered to the appropriate animals 3 times a day by oral gavage from Days 1 to 7. The doses were administered 8 hours±30 minutes apart. The dose volume for each animal was based on the most recent body weight measurement. The doses were given using a syringe with attached gavage cannula. The first day of dosing was designated as Study Day 1.
Cage side observations were performed once daily, beginning during Week −1 and throughout the dosing phase. During the dosing period, these observations were performed 1 to 3 hours post the first daily dose.
The animals were removed from the cage and a detailed clinical observation was performed on the day of randomization and Days 1 and 8. Each animal was weighed on the day of randomization (Day −4) and Days 1 to 8. Food consumption was quantitatively measured for each animal weekly, starting Day −4, throughout the dosing phase.
Multiple-dose study animals were subjected to a complete necropsy examination, which included evaluation of the carcass and musculoskeletal system; all external surfaces and orifices; cranial cavity and external surfaces of the brain; and thoracic, abdominal, and pelvic cavities with their associated organs and tissues. Necropsy examinations were conducted under the supervision of a board-certified veterinary pathologist.
For the multiple-dose study, numerical data collected on scheduled occasions for the listed variables were analyzed as indicated according to sex and occasion. Descriptive statistics number, mean and standard deviation (or % CV or SE when deemed appropriate) were reported whenever possible. Inferential statistics were performed according to the matrix below when possible, but excluded semi-quantitative data, and any group with less than 3 observations.
Levene's test was used to assess the homogeneity of group variances parametric assumption at the 5% significance level. Datasets with at least 3 groups were compared using an overall one-way ANOVA F-test or Kruskal-Wallis test (if parametric assumptions were not met) at the 5% significance level. The above pairwise comparisons were conducted using a two-sided Dunnett's or Dunn's test, respectively, if the overall test was significant. Datasets with 2 groups were compared using a two-sided t-test or Wilcoxon Rank-Sum test, respectively. All significant pairwise comparisons were reported at the 0.1%, 1%, and 5% significance levels.

Take `CN(C)C(=O)COC(=O)Cc1ccc(OC(=O)c2ccc(NC(=N)N)cc2)cc1` [Camostat Mesilate, N,N-dimethylcarbamoylmethyl-4-(4-guanidinobenzoyloxy)phenylacetate methanesulfonate]: in the series on rat models, the “Fibrosis associated with chronic pancreatitis” value is “suppress fibrosis”. Also, in the series on rat models, the “Microscopic signs of inflammation” value is reported as “markedly decrease microscopic signs of inflammation”. The Pro-inflammatory cytokine production result with rat models was “suppress pro-inflammatory cytokine production”. The “Change in serum S100A12, pre- vs post-treatment” value in series [1] (4 mg/kg q 8 hrs, n=11) is listed as “decreased significantly”; in series [1] (all treated dogs combined, n=28) it was “no significant difference; also recorded: did not change significantly; also recorded: did not lead to any significant changes”. Moreover, the “Serum S100A12 concentration post-treatment (median)” value stood at 88 µg/L in series [1] (4 mg/kg q 8 hrs, n=11, pre-treatment median 160, post range 43-449, p=0.0010) and 133 µg/L in series [1] (all treated dogs combined, n=28, pre-treatment median 154, post range 43-746, p=0.1438). The Clinical observations entry was “Most of the 1300 mg/kg/day animals were noted to be thin and 3/3 males and 2/3 females were noted to be thin” in the series on Han Wistar rats (1300 mg/kg/day, Day 8, methanesulfonate); “no clinical observations noted” in the series with Han Wistar rats (100 or 550 mg/kg/day, 7 days). The “Necropsy observation not considered test article related” value with Han Wistar rats (1300 mg/kg/day, male) is “small seminal vesicle was noted in one 1300 mg/kg/day male”. Moreover, the “Overall conclusion of multiple dosing” value in the series with Han Wistar rats (3 times per day for 7 days) is “body weight loss and decreased food consumption”. In addition, the Gross necropsy findings result with Han Wistar rats (100, 550, 1300 mg/kg/day) is on record as “no toxicologically meaningful gross necropsy findings”. Moreover, the Survival entry with Han Wistar rats (100, 550, 1300 mg/kg/day, 3 times a day, 7 days, euthanasia Day 8, methanesulfonate) is “All animals survived to scheduled euthanasia; also recorded: No animals died”. For the same compound, the “Mean body weights compared to controls” value with Han Wistar rats (100 or 550 mg/kg/day) was “no statistically significant or toxicologically meaningful differences”. Further, the “Mean body weight, deviation from controls” value with Han Wistar rats (100 or 550 mg/kg/day, Day 8) was at most 4.4%. The “Mean food consumption, statistical comparison with controls” value in the series on Han Wistar rats (Days 1 to 7, all dose groups) is listed as “no statistically significant differences”. The “Mean body weight lower than controls” value with Han Wistar rats (females, Day 8, 1300 mg/kg/day, statistically decreased Days 5 to 8) was 19%; in the series with Han Wistar rats (males, Day 8, 1300 mg/kg/day, statistically decreased Days 4 to 8), 25%. The “Body weight change Days 1 to 8” value in the series with Han Wistar rats (females, 1300 mg/kg/day) is listed as −13%; in the series with Han Wistar rats (males, 1300 mg/kg/day), −15%. Besides, the “High-dose level chosen from the tolerance study” value in the series on Han Wistar rats (rats, oral, 3 times per day) was 1300 mg/kg/day.
